Structures can show the parent of a compound that is named as a salt. Where two headings read alike, the source gives them in different places.
Columns and labels:
[1] = test system: patients with advanced solid tumors; test: phase I safety and tolerance (NCI CTCAE version 4.03, DLTs); type: in vivo, human
Procedure: This was a phase I, single-center, open-label, dose-escalation study conducted at First Hospital of Jilin University, China (registration no.: ChiCTR-OPC-15007153 registered at http://www.chictr.org.cn). Larotinib mesylate hard capsules were produced and supplied by Sunshine Lake Pharma Co., Ltd (Guangdong Province, China) in different unit doses of […] under GMP condition. Seven dose levels were designed in the study: 50, 100, 150, 220, 300, 350, and 400 mg with administration stages labeled cycle 0, cycle 1, and subsequent treatment cycles. Patients received an oral single dose of larotinib mesylate after fasting during a 6-days cycle 0 to evaluate the tolerance and pharmacokinetic characteristics. After cycle 0, larotinib mesylate was continuously administered once daily for 28 days in cycle 1, and the tolerance and pharmacokinetic characteristics of multiple doses were evaluated (Figure 2). The patients who […] disease control (complete response [CR], partial response [PR], or stable disease [SD]) at the end of cycle one were permitted to participate in the subsequent 28-days treatment cycles until progressive disease (PD) or intolerance was observed.
We enrolled three to six patients for each dose level, with the goal of having at least three patients complete the cycle 0 and cycle 1 treatments. We made an enrollment regulation for the extra patients (>3) according to the study stage of the last enrolled patient in the present dose level: If the patient had finished cycle 1 day 22, extra screened patients would be enrolled to the next dose level; if not, the current dose level would be selected. If 1/3 of patients experienced a DLT in cycle 0 or cycle 1, expansion to six patients was required for the current dose level.
DLTs were observed according to the NCI CTCAE version 4.03 and defined as the emergence of any of the following drug-related AEs: hematological toxicity including Grade ≥3 neutropenia or thrombocytopenia and other Grade ≥4 hematological toxicity; nonhematological toxicities including Grade ≥2 atrioventricular block or renal injury; Grade ≥2 nausea, emesis, or diarrhea for ≥7 days despite optimal treatment; Grade ≥3 nausea, emesis, diarrhea, or rash despite supportive care; and alanine aminotransferase (ALT) or aspartate aminotransferase (AST) elevation by more than 5 times the upper limits of normal for ≥7 days and other Grade ≥3 nonhematological toxicities.
Safety was assessed according to the NCI CTCAE version 4.03 including AEs, vital signs, and results from 12-lead […], cardiac ultrasound, physical examination, ophthalmic testing, and clinical laboratory tests. Dosage adjustments could be applied from cycle 2 according to the severity of the toxicities. Drug administration would be suspended when drug-related AEs were graded at 3 or 4, and the original dose or reduction dose would be given if the AEs returned to baseline or Grade 1 (nonhematological toxicities)/grade 2 (hematological toxicities) within 14 days.

[2] = test system: tumor-bearing mice; parameters: method as in data not published; conditions: dose of 18 mg/kg, ref data not published; cited from earlier work
[3] = urine and fecal excretion recovery, cycle 0; type: in vivo; conditions: human, oral
Procedure: Blood samples (4 ml) for pharmacokinetic analyses were collected in tubes containing K2EDTA anticoagulant. Blood samples were centrifuged at 3,000 rpm for 10 min at 4°C and stored at –80°C until liquid chromatography-mass spectrophotometry (LC-MS/MS) analysis. Urine and fecal samples were collected only when patients were given the150-mg and 220-mg dose levels at sampling time intervals of 0–4, 4–8, 8–12, 12–24, 24–48, 48–72, 72–96 and 96–120 h in cycle 0.
Linear mixed effects model was used to explore the dose exposure relationships. Dose proportionality was concluded if the 95% confidence interval (CI) of the linear regression slope was completely contained within the decision interval (1 + ln (0.8)/ln (8)∼1 + ln (1.25)/ln (8)). For urine and fecal data, the accumulative excretion rates of larotinib and M5 were calculated.
Bioanalysis was performed at Frontage Company (Shanghai, China). Validated high-performance LC-MS/MS method was used to quantify the concentrations of larotinib and M5 in plasma, urine and feces samples. Protein precipitation was employed for plasma, urine and feces processing. Plasma larotinib and M5 concentrations were determined using appropriate calibration curves obtained from standards in the range of 0.5–1,000 ng/ml. The interassay precision of the analysis method were 4.2–5.4% for larotinib and 3.9–4.3% for M5. The interassay accuracy of the analysis method were 100.4–103.4% for larotinib and 102.2–102.9% for M5, respectively.

COc1cc2ncnc(Nc3ccc(F)c(Cl)c3)c2cc1OCCCN1C[C@@H]2OCCO[C@@H]2C1 [larotinib mesylate]
MTD in patients ([1]; 50–400 mg/d oral): no MTD established
Grade 3 drug-related decreased lymphocytes ([1]; human, in vivo): 12%
Grade 3 drug-related diarrhea ([1]; human, in vivo): 4%
Grade 3 drug-related nausea ([1]; human, in vivo): 4%
drug-related acne-like rash, incidence ([1]; human, in vivo): 68.0%
drug-related anemia, incidence ([1]; human, in vivo): 48.0%
drug-related decreased lymphocyte percentage, incidence ([1]; human, in vivo): 40.0%
drug-related diarrhea, incidence ([1]; human, in vivo): 48.0%
drug-related hand-foot skin reaction, incidence ([1]; human, in vivo): 44.0%
drug-related hypoalbuminemia, incidence ([1]; human, in vivo): 32.0%
drug-related nausea, incidence ([1]; human, in vivo): 36.0%
drug-related paronychia, incidence ([1]; human, in vivo): 48.0%
drug-related stomatitis, incidence ([1]; human, in vivo): 44.0%
drug-related weight loss, incidence ([1]; human, in vivo): 32.0%
patients with Grade 3 drug-related AEs ([1]; human, in vivo): 20%
patients with at least one drug-related AE ([1]; human, in vivo): 96%
tumor-inhibiting rate [2]: exceeding 60%
dose excreted ([3]; feces, 150-mg group, read-out: 0–120 h excretion recovery percentage in feces): 6.01%
dose excreted ([3]; feces, 220-mg group, read-out: 0–120 h excretion recovery percentage in feces): 7.89%
dose excreted ([3]; 150-mg group, urine plus feces, read-out: 0–120 h excretion recovery percentage, total): 7.41%
dose excreted ([3]; 220-mg group, urine plus feces, read-out: 0–120 h excretion recovery percentage, total): 9.25%
dose excreted ([3]; urine, 150-mg group, read-out: 0–120 h excretion recovery percentage in urine): 1.4%
dose excreted ([3]; urine, 220-mg group, read-out: 0–120 h excretion recovery percentage in urine): 1.36%

Reference: PMC7930822, “Phase I Trial to Evaluate the Tolerance, Pharmacokinetics and Efficacy of the Broad-Spectrum ErbB Family Inhibitor Larotinib Mesylate in Patients With Advanced Solid Tumors” (Frontiers in Pharmacology, 2021)
